# Source: the supplement of paper PMC10307832
# How the values were obtained:
# Test in all cases: relative viability (nuclei count vs DMSO), 5 days (fraction); higher = more cells survive
# 201T = test system: 201T
# Outline: (§1)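 A single step with final 0.05% Triton X-100, 1% formaldehyde and 1 ug/ml Hoechst fixed the cells and stained nuclei 5 days after treatment. Lung cancer cell lines in 1536-well plates had been treated by pin tool the day after seeding with one drug alone or a fixed anchor-drug dose plus five library-drug doses (not always all listed) in √10 steps, and nuclei were counted on 4× images. Relative viability is the ratio of nuclei in treated wells to nuclei in vehicle wells, taken as the median of duplicate plates.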
# A-427 = test system: A-427
# Outline: as §1
# COR-L23 = test system: COR-L23
# Outline: as §1
# H3255 = test system: H3255
# Outline: as §1
# HCC-44 = test system: HCC-44
# Outline: as §1
# LC-2-ad = test system: LC-2-ad
# Outline: as §1
# LCLC-103H = test system: LCLC-103H
# Outline: as §1
# LCLC-97TM1 = test system: LCLC-97TM1
# Outline: as §1
# LK-2 = test system: LK-2
# Outline: as §1
# LU99A = test system: LU99A
# Outline: as §1
# NCI-H1563 = test system: NCI-H1563
# Outline: as §1
# NCI-H1650 = test system: NCI-H1650
# Outline: as §1
# NCI-H1793 = test system: NCI-H1793
# Outline: as §1
# NCI-H2228 = test system: NCI-H2228
# Outline: as §1
# NCI-H2347 = test system: NCI-H2347
# Outline: as §1
# NCI-H23 = test system: NCI-H23
# Outline: as §1
# NCI-H460 = test system: NCI-H460
# Outline: as §1
# NCI-H596 = test system: NCI-H596
# Outline: as §1
# NCI-H727 = test system: NCI-H727
# Outline: as §1
# PC-14 = test system: PC-14
# Outline: as §1
# PC-3 [JPC-3] = test system: PC-3 [JPC-3]
# Outline: as §1
# SW 1573 = test system: SW 1573
# Outline: as §1
smiles,measurement,setting,value
CCN(CC)CCCCNc1ncc2cc(-c3cc(OC)cc(OC)c3)c(NC(=O)NC(C)(C)C)nc2n1 + CS(=O)(=O)N1CCN(Cc2cc3nc(-c4cccc5[nH]ncc45)nc(N4CCOCC4)c3s2)CC1 [Pictilisib] (partner 1 µM),relative viability,201T; first compound 0.01 µM,0.741
same,relative viability,201T; first compound 0.03162 µM,0.663
same,relative viability,201T; first compound 0.1 µM,0.775
same,relative viability,201T; first compound 0.3162 µM,0.677
same,relative viability,201T; first compound 1 µM,0.573
same,relative viability,A-427; first compound 0.01 µM,0.704
same,relative viability,A-427; first compound 0.03162 µM,0.657
same,relative viability,A-427; first compound 0.1 µM,0.769
same,relative viability,A-427; first compound 0.3162 µM,0.671
same,relative viability,A-427; first compound 1 µM,0.353
same,relative viability,COR-L23; first compound 0.01 µM,0.781
same,relative viability,COR-L23; first compound 0.03162 µM,0.955
same,relative viability,COR-L23; first compound 0.1 µM,0.824
same,relative viability,COR-L23; first compound 0.3162 µM,0.809
same,relative viability,COR-L23; first compound 1 µM,0.8
same,relative viability,H3255; first compound 0.01 µM,0.421
same,relative viability,H3255; first compound 0.03162 µM,0.485
same,relative viability,H3255; first compound 0.1 µM,0.569
same,relative viability,H3255; first compound 0.3162 µM,0.514
same,relative viability,H3255; first compound 1 µM,0.501
same,relative viability,HCC-44; first compound 0.01 µM,0.687
same,relative viability,HCC-44; first compound 0.03162 µM,0.746
same,relative viability,HCC-44; first compound 0.1 µM,0.603
same,relative viability,HCC-44; first compound 0.3162 µM,0.635
same,relative viability,HCC-44; first compound 1 µM,0.451
same,relative viability,LC-2-ad; first compound 0.01 µM,0.481
same,relative viability,LC-2-ad; first compound 0.03162 µM,0.449
same,relative viability,LC-2-ad; first compound 0.1 µM,0.547
same,relative viability,LC-2-ad; first compound 0.3162 µM,0.544
same,relative viability,LC-2-ad; first compound 1 µM,0.392
same,relative viability,LCLC-103H; first compound 0.01 µM,0.551
same,relative viability,LCLC-103H; first compound 0.03162 µM,0.661
same,relative viability,LCLC-103H; first compound 0.1 µM,0.595
same,relative viability,LCLC-103H; first compound 0.3162 µM,0.553
same,relative viability,LCLC-103H; first compound 1 µM,0.443
same,relative viability,LCLC-97TM1; first compound 0.03162 µM,0.18
same,relative viability,LCLC-97TM1; first compound 0.1 µM,0.162
same,relative viability,LCLC-97TM1; first compound 0.3162 µM,0.16
same,relative viability,LCLC-97TM1; first compound 1 µM,0.178
same,relative viability,LK-2; first compound 0.01 µM,0.624
same,relative viability,LK-2; first compound 0.03162 µM,0.438
same,relative viability,LK-2; first compound 0.1 µM,0.425
same,relative viability,LK-2; first compound 0.3162 µM,0.388
same,relative viability,LK-2; first compound 1 µM,0.263
same,relative viability,LU99A; first compound 0.01 µM,0.31
same,relative viability,LU99A; first compound 0.03162 µM,0.396
same,relative viability,LU99A; first compound 0.1 µM,0.345
same,relative viability,LU99A; first compound 0.3162 µM,0.313
same,relative viability,LU99A; first compound 1 µM,0.277
same,relative viability,NCI-H1563; first compound 0.01 µM,0.63
same,relative viability,NCI-H1563; first compound 0.03162 µM,0.636
same,relative viability,NCI-H1563; first compound 0.1 µM,0.634
same,relative viability,NCI-H1563; first compound 0.3162 µM,0.529
same,relative viability,NCI-H1563; first compound 1 µM,0.425
same,relative viability,NCI-H1650; first compound 0.01 µM,0.542
same,relative viability,NCI-H1650; first compound 0.03162 µM,0.464
same,relative viability,NCI-H1650; first compound 0.1 µM,0.423
same,relative viability,NCI-H1650; first compound 0.3162 µM,0.477
same,relative viability,NCI-H1650; first compound 1 µM,0.22
same,relative viability,NCI-H1793; first compound 0.01 µM,0.286
same,relative viability,NCI-H1793; first compound 0.1 µM,0.322
same,relative viability,NCI-H1793; first compound 0.3162 µM,0.233
same,relative viability,NCI-H1793; first compound 1 µM,0.224
same,relative viability,NCI-H2228; first compound 0.01 µM,0.441
same,relative viability,NCI-H2228; first compound 0.03162 µM,0.311
same,relative viability,NCI-H2228; first compound 0.1 µM,0.353
same,relative viability,NCI-H2228; first compound 0.3162 µM,0.539
same,relative viability,NCI-H2228; first compound 1 µM,0.246
same,relative viability,NCI-H2347; first compound 0.01 µM,0.772
same,relative viability,NCI-H2347; first compound 0.03162 µM,0.656
same,relative viability,NCI-H2347; first compound 0.1 µM,0.611
same,relative viability,NCI-H2347; first compound 0.3162 µM,0.89
same,relative viability,NCI-H2347; first compound 1 µM,0.655
same,relative viability,NCI-H23; first compound 0.01 µM,0.414
same,relative viability,NCI-H23; first compound 0.03162 µM,0.411
same,relative viability,NCI-H23; first compound 0.1 µM,0.463
same,relative viability,NCI-H23; first compound 0.3162 µM,0.37
same,relative viability,NCI-H23; first compound 1 µM,0.435
same,relative viability,NCI-H460; first compound 0.01 µM,0.311
same,relative viability,NCI-H460; first compound 0.03162 µM,0.258
same,relative viability,NCI-H460; first compound 0.1 µM,0.417
same,relative viability,NCI-H460; first compound 0.3162 µM,0.382
same,relative viability,NCI-H460; first compound 1 µM,0.395
same,relative viability,NCI-H596; first compound 0.01 µM,0.422
same,relative viability,NCI-H596; first compound 0.03162 µM,0.418
same,relative viability,NCI-H596; first compound 0.1 µM,0.369
same,relative viability,NCI-H596; first compound 0.3162 µM,0.378
same,relative viability,NCI-H596; first compound 1 µM,0.35
same,relative viability,NCI-H727; first compound 0.01 µM,0.413
same,relative viability,NCI-H727; first compound 0.03162 µM,0.417
same,relative viability,NCI-H727; first compound 0.1 µM,0.362
same,relative viability,NCI-H727; first compound 0.3162 µM,0.627
same,relative viability,NCI-H727; first compound 1 µM,0.41
same,relative viability,PC-14; first compound 0.01 µM,0.702
same,relative viability,PC-14; first compound 0.03162 µM,0.624
same,relative viability,PC-14; first compound 0.1 µM,0.658
same,relative viability,PC-14; first compound 0.3162 µM,0.807
same,relative viability,PC-14; first compound 1 µM,0.509
same,relative viability,PC-3 [JPC-3]; first compound 0.01 µM,0.739
same,relative viability,PC-3 [JPC-3]; first compound 0.03162 µM,0.843
same,relative viability,PC-3 [JPC-3]; first compound 0.1 µM,0.786
same,relative viability,PC-3 [JPC-3]; first compound 0.3162 µM,0.815
same,relative viability,PC-3 [JPC-3]; first compound 1 µM,0.602
same,relative viability,SW 1573; first compound 0.01 µM,0.528
same,relative viability,SW 1573; first compound 0.03162 µM,0.48
same,relative viability,SW 1573; first compound 0.1 µM,0.615
same,relative viability,SW 1573; first compound 0.3162 µM,0.66
same,relative viability,SW 1573; first compound 1 µM,0.507
